The values below come from patent US20200016136A1 (VIIV HEALTHCARE UK (NO. 5) LIMITED, priority 2017, published 2020).

SMILES strings stand for the structures.

For this assay, the system named is NL-RLuc virus (recombinant NL4-3 HIV with Renilla Luciferase gene). Nature of the assay: Inhibition of HIV replication (NL-RLuc virus in MT-2 cells, luciferase readout). The assay is classed as cell-based, Human immunodeficiency virus (HIV). Conditions: MT2, 120 h. An excerpt:
Inhibition of HIV Replication:
A recombinant NL-RLuc proviral clone was constructed in which a section of the nef gene form NL4-3 was replaced with the Renilla Luciferase gene. This virus is fully infectious and can undergo multiple cycles of replication in cell culture. In addition, the luciferous reporter provides a simple and easy method for quantitating the extent of virus growth and consequently, the antiviral activity of test compounds. The plasmid pNLRLuc contains the proviral NL-Rluc DNA cloned into pUC18 at the PvuII site. The NL-RLuc virus was prepared by transfection of 293T cells with the plasmid pNLRLuc. Transfections were performed using the LipofectAMINE PLUS kit form Invitrogen (Carlsbad, Calif.) according to the manufacturer and the virus generated was titered in MT-2 cells. For susceptibility analyses, the titrated virus was used to infect MT-2 cells in the presence of compound, and after 5 days of incubation, cells were processed and quantitated for virus growth by the amount of expressed luciferase. Assay media was RPMI 1640 supplemented with 10% heat inactivated fetal bovine serum (FBS), 100 units/ml penicillin G/100 units/ml streptomycin, 10 mM HEPES buffer pH 7.55 and 2 mM L-glutamine. The results form at least 2 experiments were used to calculate the EC50 values. Luciferase was quantitated using the Dual Luciferase kit form Promega (Madison, Wis.). Susceptibility of viruses to compounds was determined by incubation in the presence of serial dilutions of the compound. The 50% effective concentration (EC50) was calculated by using the exponential form of the median effect equation where (Fa)=1/[1+(ED50/drug conc.)^m](Johnson V A, Byington R T. Infectivity Assay. In Techniques in HIV Research. ed. Aldovini A, Walker B D. 71-76. New York: Stockton Press. 1990).
In general, EC50 refers to the concentration giving half of the maximal effect. `Cc1cccc(Cl)c1CN1CCc2cc(-c3c(O)nc(C)c([C@H](OC(C)(C)C)C(=O)O)c3N3CCC(C)(C)CC3)ccc2C1` [Example 1, (S)-2-(tert-Butoxy)-2-(5-(2-(2-chloro-6-methylbenzyl)-1,2,3,4-tetrahydroisoquinolin-6-yl)-4-(4,4-dimethylpiperidin-1-yl)-2-methyl-6-oxo-1,6-dihydropyridin-3-yl)acetic Acid]: the EC50 was found to be 10 nM.

Turning to `COCCNc1nc(C)c([C@H](OC(C)(C)C)C(=O)O)c(N2CCC(C)(C)CC2)c1-c1ccc2c(c1)CCN(Cc1c(C)cccc1Cl)C2` [Example 2, (S)-2-(tert-Butoxy)-2-(5-(2-(2-chloro-6-methylbenzyl)-1,2,3,4-tetrahydroisoquinolin-6-yl)-4-(4,4-dimethylpiperidin-1-yl)-6-((2-methoxyethyl)amino)-2-methylpyridin-3-yl)acetic Acid], the concentration giving a half-maximal response (EC50) amounted to 4 nM.

With `Cc1cccc(Cl)c1CN1CCc2cc(-c3c(NCCN(C)C)nc(C)c([C@H](OC(C)(C)C)C(=O)O)c3N3CCC(C)(C)CC3)ccc2C1` [Example 3, (S)-2-(tert-Butoxy)-2-(5-(2-(2-chloro-6-methylbenzyl)-1,2,3,4-tetrahydroisoquinolin-6-yl)-6-((2-(dimethylamino)ethyl)amino)-4-(4,4-dimethylpiperidin-1-yl)-2-methylpyridin-3-yl)acetic Acid], the EC50 came to 5 nM.

`Cc1cccc(Cl)c1CN1CCc2cc(-c3c(NCCN4CCCCC4)nc(C)c([C@H](OC(C)(C)C)C(=O)O)c3N3CCC(C)(C)CC3)ccc2C1` [Example 4, (S)-2-(tert-Butoxy)-2-(5-(2-(2-chloro-6-methylbenzyl)-1,2,3,4-tetrahydroisoquinolin-6-yl)-4-(4,4-dimethylpiperidin-1-yl)-2-methyl-6-((2-(piperidin-1-yl)ethyl)amino)pyridin-3-yl)acetic Acid]: the concentration giving a half-maximal response (EC50) turned out to be 4 nM.

For `Cc1cccc(Cl)c1CN1CCc2cc(-c3c(NCCN4CCOCC4)nc(C)c([C@H](OC(C)(C)C)C(=O)O)c3N3CCC(C)(C)CC3)ccc2C1` [Example 5, (S)-2-(tert-Butoxy)-2-(5-(2-(2-chloro-6-methylbenzyl)-1,2,3,4-tetrahydroisoquinolin-6-yl)-4-(4,4-dimethylpiperidin-1-yl)-2-methyl-6-((2-morpholinoethyl)amino)pyridin-3-yl)acetic Acid], the EC50 is 2 nM.

Take `Cc1cccc(Cl)c1CN1CCc2cc(-c3c(NCc4ccn[nH]4)nc(C)c([C@H](OC(C)(C)C)C(=O)O)c3N3CCC(C)(C)CC3)ccc2C1` [Example 6, (S)-2-(6-(((1H-Pyrazol-5-yl)methyl)amino)-5-(2-(2-chloro-6-methylbenzyl)-1,2,3,4-tetrahydroisoquinolin-6-yl)-4-(4,4-dimethylpiperidin-1-yl)-2-methylpyridin-3-yl)-2-(tert-butoxy)acetic Acid]: the EC50 turned out to be 18 nM.

As for `Cc1cccc(Cl)c1CN1CCc2cc(-c3c(NCCn4cccn4)nc(C)c([C@H](OC(C)(C)C)C(=O)O)c3N3CCC(C)(C)CC3)ccc2C1` [Example 7, (S)-2-(6-((2-(1H-Pyrazol-1-yl)ethyl)amino)-5-(2-(2-chloro-6-methylbenzyl)-1,2,3,4-tetrahydroisoquinolin-6-yl)-4-(4,4-dimethylpiperidin-1-yl)-2-methylpyridin-3-yl)-2-(tert-butoxy)acetic Acid], the EC50 came to 13 nM.

Regarding `Cc1cccc(Cl)c1CN1CCc2cc(-c3c(NC4CCN(C)CC4)nc(C)c([C@H](OC(C)(C)C)C(=O)O)c3N3CCC(C)(C)CC3)ccc2C1` [Example 8, (S)-2-(tert-Butoxy)-2-(5-(2-(2-chloro-6-methylbenzyl)-1,2,3,4-tetrahydroisoquinolin-6-yl)-4-(4,4-dimethylpiperidin-1-yl)-2-methyl-6-((1-methylpiperidin-4-yl)amino)pyridin-3-yl)acetic Acid], the EC50 amounted to 2 nM.
